This passage reports Ki results from patent publication US10472347B2, “Aminopyrazine compounds with A2A antagonist properties” (Merck Sharp & Dohme Corp., priority 2014, dated 2019).

What is called Ki is a dissociation constant, usually derived from enzyme kinetics or from competition with a known ligand.

This test deals with T1, human A2a receptor (Homo sapiens, UniProt P29274).
T1 construct: purchased Perkin-Elmer RBHA2AM400UA; host or cells: HEK293 cells (membranes)
The experiment in a line: A2a competition binding assay, Scintillation Proximity technology. The conditions noted are these: membranes from HEK293 cells expressing human A2a receptor; Ki by Cheng-Prusoff equation. The method in brief: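 Membranes from HEK293 cells expressing human A2a, adenosine deaminase-treated, incubated 1 h at room temperature with compound (3000 to 0.15 nM) and 0.5 nM tritiated pyrazolotriazolopyrimidine radioligand on WGA SPA beads in Ca/Mg-free PBS + 10 mM MgCl2. Non-specific binding with 1 μM CGS15943; Ki by Cheng-Prusoff.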
Background: Scintillation proximity formats need no separation of bound from free tracer.

SMILES strings stand for the structures.

T1 sequence (P29274 whole entry): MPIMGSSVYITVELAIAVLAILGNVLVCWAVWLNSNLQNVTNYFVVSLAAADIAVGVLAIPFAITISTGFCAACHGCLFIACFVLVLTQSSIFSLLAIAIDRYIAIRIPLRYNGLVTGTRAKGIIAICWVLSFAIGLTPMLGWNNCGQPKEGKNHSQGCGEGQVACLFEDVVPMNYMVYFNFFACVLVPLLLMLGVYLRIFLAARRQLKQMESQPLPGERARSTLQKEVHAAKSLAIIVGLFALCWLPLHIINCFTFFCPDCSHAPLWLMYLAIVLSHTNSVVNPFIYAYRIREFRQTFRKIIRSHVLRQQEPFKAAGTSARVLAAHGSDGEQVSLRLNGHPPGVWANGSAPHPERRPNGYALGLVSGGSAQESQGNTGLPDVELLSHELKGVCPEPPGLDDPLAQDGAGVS

In the case of `Cc1nc(C(=O)NCc2cccc3ccncc23)c(N)nc1-c1ncco1` [Ex-23, 3-amino-N-(isoquinolin-8-ylmethyl)-6-methyl-5-(1,3-oxazol-2-yl)pyrazine-2-carboxamide], the inhibition constant (Ki) came out at 0.293 nM.
`CCc1cccnc1CNC(=O)c1nc(C)c(-c2ncco2)nc1N` [Ex-179, 3-amino-N-[(3-ethylpyridin-2-yl)methyl]-6-methyl-5-(1,3-oxazol-2-yl)pyrazine-2-carboxamide]: affinity was put at a Ki of 0.1 nM.
Turning to `COC(=O)[C@@H](NC(=O)c1nc(Cl)c(-n2nccn2)nc1N)c1ccccc1` [Ex-323, methyl (2S)-({[3-amino-6-chloro-5-(2H-1,2,3-triazol-2-yl)pyrazin-2-yl]carbonyl}amino) (phenyl)ethanoate], the Ki was determined as 65.3 nM.
The molecule `Cc1cccc(CNC(=O)c2nc(C)c(-c3ncco3)nc2N)c1F` [Ex-135, 3-amino-N-(2-fluoro-3-methylbenzyl)-6-methyl-5-(1,3-oxazol-2-yl)pyrazine-2-carboxamide] gave an inhibition constant Ki of 0.169 nM.
For the molecule `Cc1cnn(-c2nc(N)c(C(=O)NCc3cccc4cccnc34)nc2Cl)n1` [Ex-348, 3-amino-6-chloro-5-(4-methyl-2H-1,2,3-triazol-2-yl)-N-(quinolin-8-ylmethyl)pyrazine-2-carboxamide], the affinity corresponds to a Ki of 10.1 nM.
Turning to `Nc1nc(-n2nccn2)c(Cl)nc1C(=O)N[C@@H]1CCc2ccccc21` [Ex-281, 3-amino-6-chloro-N-[(1R)-2,3-dihydro-1H-inden-1-yl]-5-(2H-1,2,3-triazol-2-yl)pyrazine-2-carboxamide], the inhibition constant (Ki) was found to be 5.7 nM.
Then `Cc1nc(C(=O)NCc2ccc(C)n2C)c(N)nc1-c1ncco1` [Ex-142, 3-amino-N-[(1,5-dimethyl-1H-pyrrol-2-yl)methyl]-6-methyl-5-(1,3-oxazol-2-yl)pyrazine-2-carboxamide], with 0.704 nM; and `Nc1nc(-n2nccn2)c(Cl)nc1C(=O)N[C@@H](c1ccccc1)C(F)(F)F` [Ex-286, 3-amino-6-chloro-5-(2H-1,2,3-triazol-2-yl)-N-[(1S)-2,2,2-trifluoro-1-phenylethyl]pyrazine-2-carboxamide], with 124 nM; and `Cc1nc(C(=O)NCc2ccc[n+]([O-])c2)c(N)nc1-c1ncco1` [Ex-99, 3-amino-6-methyl-5-(1,3-oxazol-2-yl)-N-[(1-oxidopyridin-3-yl)methyl]pyrazine-2-carboxamide], with 208 nM.
As for `Cc1nc(C(=O)NCc2nc3ccccc3[nH]2)c(N)nc1-c1ncco1` [Ex-164, 3-amino-N-(1H-benzimidazol-2-ylmethyl)-6-methyl-5-(1,3-oxazol-2-yl)pyrazine-2-carboxamide], the figure is 1.29 nM.
`Cc1nc(C(=O)NCCc2ccccn2)c(N)nc1-c1ncco1` [Ex-25, 3-amino-6-methyl-5-(1,3-oxazol-2-yl)-N-(2-pyridin-2-ylethyl)pyrazine-2-carboxamide] yielded a Ki of 16.2 nM.
On to `Cc1nc(C(=O)NCc2cccc3cccnc23)c(N)nc1-n1cccn1` [Ex-347, 3-amino-6-methyl-5-(1H-pyrazol-1-yl)-N-(quinolin-8-ylmethyl)pyrazine-2-carboxamide], for which the Ki is 46.4 nM.
For `Cc1cnn(-c2nc(N)c(C(=O)NCc3ncccc3C)nc2Cl)c1` [Ex-337, 3-amino-6-chloro-5-(4-methyl-1H-pyrazol-1-yl)-N-[(3-methylpyridin-2-yl)methyl]pyrazine-2-carboxamide], the Ki stood at 11.2 nM.
The molecule `Cc1nc(C(=O)NC2CCCC(O)CC2)c(N)nc1-c1ncco1` (single isomer, unassigned) [Ex-165D, 3-amino-N-(4-hydroxycycloheptyl)-6-methyl-5-(1,3-oxazol-2-yl)pyrazine-2-carboxamide] displayed an inhibition constant Ki of 9.34 nM.
As for `Cc1nc(C(=O)NCc2ncco2)c(N)nc1-c1ncco1` [Ex-13, 3-amino-6-methyl-5-(1,3-oxazol-2-yl)-N-(1,3-oxazol-2-ylmethyl)pyrazine-2-carboxamide], the figure is 6.06 nM.
Take `Cc1nc(C(=O)NCc2cc(F)ccn2)c(N)nc1-c1ncco1` [Ex-61, 3-amino-N-[(4-fluoropyridin-2-yl)methyl]-6-methyl-5-(1,3-oxazol-2-yl)pyrazine-2-carboxamide]: the inhibition constant (Ki) came to 2.46 nM. Against the preceding molecule, the Ki is about 2.5-fold lower.
